The record followed here is patent US20080070859A1, “Compounds resistant to metabolic deactivation and methods of use” (priority 2002, published 2008).

The test system of one series is CEM/Cl. Briefly: MTT assay of cell viability, CEM/Cl. Type of series: cell-based. The conditions noted are these: 5 days at 37 C. As for the experimental part:
(§1) The in vitro cytotoxicities of thioaminal prodrugs of Cordycepin were compared to the parent drug Cordycepin using a standard MTT assay of cell viability (Hansen et al. (1989) J. Immunol. Meth. 119:203-10). Leukemia cell lines growing in the exponential phase (MOLT, […], and CEM/Cl) were plated at a final concentration of 1×10^5 cells/ml and exposed to serial dilutions of the Cordycepin prodrugs. In a subset of the experiments (denoted by “+”), the cells were preincubated with 1 μM of the ADA inhibitor 2′-deoxycoformycin for 30 minutes prior to addition of prodrug. Cell viability was determined after incubation for 5 days at 37 C by addition of 3-(4,5-dimethylthizaol-2-yl)-2,5-diplenyl-tetrazolium dye. IC50 was defined as the drug concentration that reduced cell viability 50% in comparison with the appropriate control.

The nature of series [1]: HPLC stability analysis: hydrolysis of the prodrug to Cordycepin in phosphate buffer. It counts as physicochemical. As to conditions: 0.63 mM in 30 mM phosphate buffer (pH 7.3) containing 5% DMSO, 37 C; for half-life at 0.63 mM: read-out: t½ (time point at which half of the Cordycepin prodrug was hydrolysed to Cordycepin) (converted). On the procedure: To analyze the half-life of thioaminal prodrugs, HPLC stability analysis was performed on the following Cordycepin prodrugs. Solutions (0.63 mM) of each of the following compounds was prepared in 30 mM phosphate buffer (pH 7.3) containing 5% DMSO and incubated at 37 C.

The subject of a further series is MOLT. Briefly: MTT assay of cell viability, MOLT. It counts as cell-based. The conditions noted are these: 5 days at 37 C. As for the experimental part: as §1
(In general: Tetrazolium assays rely on reduction of a dye to a coloured formazan, in cell work by metabolically active cells.)

The subject of series [2] is Leukemia cell lines (MOLT, HL-69, and CEM/Cl). Briefly: MTT assay of cell viability, overall comparison with Cordycepin. As to conditions: both in the presence and absence of ADA inhibitor. Type of series: cell-based. As for the experimental part: as §1
The subject of series [3] is Leukemia cell lines (MOLT, and CEM/Cl). Described as above. The conditions noted are these: absence vs presence of ADA inhibitor 2′-deoxycoformycin. Type of series: cell-based. On the procedure:
as §1

The next series has as its system HL-60. Briefly: MTT assay of cell viability, HL-60. It counts as cell-based. As to conditions: 5 days at 37 C. As for the experimental part:
as §1

Where [4] appears, read: + (preincubated with 1 μM 2′-deoxycoformycin for 30 minutes).
The mark [5] stands for this setting: HL-60, + (preincubated with 1 μM 2′-deoxycoformycin for 30 minutes).
Where [6] appears, read: Homo sapiens, 120 h, HL-60, − (no ADA inhibitor).

With “6-N-(4-N-acetylbenzylthio)methyl-Cordycepin [8b]”, the IC50 (usually the point on the concentration scale where inhibition reaches its midpoint) in the series with CEM/Cl (setting [4]) was 3 µM; in the series on CEM/Cl (− (no ADA inhibitor)), 15 µM.
Regarding `CCSCNc1ncnc2c1ncn2[C@@H]1O[C@H](CO)C[C@H]1O` [1b, 6-N-(Ethanethio)methyl-Cordycepin], the “t½ (time point at which half of the Cordycepin prodrug was hydrolysed to Cordycepin)” value in series [1] is more than 72 h.
Same read-out and setting: under `OCCSCNc1ncnc2c1ncn2[C@@H]1O[C@H](CO)C[C@H]1O` [2b, 6-N-(2-hydroxyethanethio)methyl-Cordycepin] stands more than 72 h.
Turning to `OC[C@@H]1C[C@@H](O)[C@H](n2cnc3c(NCSc4ccccc4)ncnc32)O1` [3b, 6-N-(phenylthiol)methyl-Cordycepin], the IC50 in the series on MOLT (120 h, − (no ADA inhibitor)) was 18 µM; with MOLT (setting [4]), 16 µM; in the series on CEM/Cl (120 h, − (no ADA inhibitor)), 5.5 µM; in the series on CEM/Cl (setting [4]) it was 2 µM; with HL-60 (setting [5]), 7 µM; with HL-60 (setting [6]), 24 µM. Also, the “cytotoxic potency compared to Cordycepin” value in series [2] is recorded as “more potent cytotoxic agents than Cordycepin”. Moreover, the “attenuation of activity in the absence of ADA inhibitor” value in series [3] is recorded as “not significantly attenuated”. For the same molecule, the half-life at 0.63 mM in series [1] is 15 h.
For `Cc1ccc(SCNc2ncnc3c2ncn3[C@@H]2O[C@H](CO)C[C@H]2O)cc1` [4b], the IC50 with MOLT (120 h, − (no ADA inhibitor)) worked out at 35 µM; with MOLT (setting [4]) it was 30 µM; in the series with CEM/Cl (120 h, − (no ADA inhibitor)), 24 µM; in the series on CEM/Cl (setting [4]), 5 µM; in the series on HL-60 (setting [5]) it was 17 µM; in the series with HL-60 (setting [6]), 50 µM. Moreover, in series [2], the “cytotoxic potency compared to Cordycepin” value is reported as “more potent cytotoxic agents than Cordycepin”.
With `COc1ccc(SCNc2ncnc3c2ncn3[C@@H]2O[C@H](CO)C[C@H]2O)cc1` [5b, 6-N-(4-methoxybenzothio)methyl-Cordycepin], the “cytotoxic potency compared to Cordycepin” value in series [2] is recorded as “more potent cytotoxic agents than Cordycepin”. Moreover, the half-life at 0.63 mM in series [1] is 17 h. For the same molecule, the IC50 is 15 µM in the series on CEM/Cl (120 h, − (no ADA inhibitor)) and 3 µM in the series on CEM/Cl (setting [4]).
On to `O=[N+]([O-])c1ccc(CSCNc2ncnc3c2ncn3[C@@H]2O[C@H](CO)C[C@H]2O)cc1` [7b, 6-N-(4-nitrobenzylthio)methyl-Cordycepin], for which, in series [1], the “t½ (time point at which half of the Cordycepin prodrug was hydrolysed to Cordycepin)” value is 1 h.
Regarding `Nc1ncnc2c1ncn2[C@@H]1O[C@H](CO)C[C@H]1O` [Cordycepin, 3′-deoxyadenosine, reference compound], the IC50 is 80 µM with MOLT (120 h, − (no ADA inhibitor)); 21 µM in the series with MOLT (setting [4]); 27 µM in the series with CEM/Cl (120 h, − (no ADA inhibitor)); 2 µM in the series with CEM/Cl (setting [4]); 9 µM with HL-60 (setting [5]); 42 µM in the series on HL-60 (setting [6]).
